Assay results published in PubChem BioAssay AID743417 (Broad Institute, 2014).
Results filed as inconclusive are left out. Active and inactive are the calls of the source.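 The calls were made as follows: active = compounds lowering the luciferase signal with a fitted half-maximal dose at most twice their top valid dose (cut at about 30 µM in these data); inconclusive = flat fits with moderate signal loss, or poor fits; inactive = the rest.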

Tested on: Clone20 osteoblast Shn3 3'UTR firefly luciferase, 24 h
Assay: Shn3 3'UTR reporter inhibitors, dose response, cell-based, Clone20 osteoblasts, luminescence, dry powder, set 2 (AID 743417)

Row | SMILES | AC50
1 | NC(=Nc1nc(-c2ccccn2)cc2ccccc12)c1ccccn1 | < 260 nM
2 | COCCN1Cc2cccc(C(=O)Nc3ccc4c(c3)OCCO4)c2C1=O | 27100 nM
3 | Cc1ccc(CS(=O)(=O)c2ncc(Cl)c(C(=O)Nc3nnc(C)s3)n2)cc1 | 639 nM
4 | CCOC(=O)c1c2c(n(Cc3ccccc3)c1C)C(=O)C(=O)c1ccccc1-2 | 2300 nM
5 | CC(C)CC(=O)NC(=S)Nc1ccc(N2CCN(C(=O)c3cccs3)CC2)cc1 | 2540 nM
6 | O=C(OCCC12CC3CC(CC(C3)C1)C2)c1ccc(NCc2cc(O)ccc2O)cc1 | 1820 nM
7 | COc1ccc(CNC(=O)c2nc(S(=O)(=O)Cc3ccccc3)ncc2Cl)cc1 | 956 nM
8 | Cc1oc(-c2ccc(Cl)cc2)nc1CS(=O)CC(=O)NCCCN1CCN(Cc2ccccc2)CC1 (centres undefined) | 2520 nM
9 | CN(C)C1=NC[C@H](Cc2ccccc2)N1CCCCc1ccccc1 | 8010 nM
10 | CC(C)OC(=O)c1ccc(NCc2cc(O)ccc2O)cc1 | 1900 nM
11 | CCn1cc(C(=O)NCc2ccco2)c(=O)c2cc(S(=O)(=O)N3CC(C)CC(C)C3)ccc21 (centres undefined) | 778 nM
12 | COc1cc2ccnc(Cc3cccc(OC)c3OC)c2cc1OC | 4640 nM
13 | Cc1ccnc(N/C=C(/NC(=O)c2ccccc2)C(=O)N/N=C\c2ccc(F)cc2)n1 | > 70000 nM (inactive)
14 | COc1ccc(-c2noc(CCC(=O)NCCCN3CCC(Cc4ccccc4)CC3)n2)cc1 | 4030 nM
15 | COc1ccccc1CNc1nc(NCc2ccccc2OC)c2sccc2n1 | 6330 nM
16 | Nc1nc(N)c2cc(S(=O)(=O)c3cccc(C(F)(F)F)c3)ccc2n1 | 5220 nM
17 | CSc1nnc(NC(=O)c2nc(S(=O)(=O)Cc3ccccc3F)ncc2Cl)s1 | 1550 nM
18 | c1csc(CCNc2ncnc3sc4c(c23)CCC4)c1 | 1700 nM
19 | Cn1nc(C(C)(C)C)cc1C(=O)N1CCCCC1c1cc(C(=O)Nc2ccc(F)c(Cl)c2)no1 (centres undefined) | 3040 nM
20 | Cn1c(SCC(=O)N2CCCc3ccccc32)nc2ccccc2c1=O | 3460 nM
21 | CCCCCCCCNC(C)C(O)c1ccc(SC(C)C)cc1 (centres undefined) | 3940 nM
22 | COc1ccccc1-c1cc(C(F)(F)F)nc(S(=O)(=O)CCCC(=O)Nc2cccnc2Cl)n1 | 10600 nM
23 | O=C(Nc1ccc(F)cc1)Nc1cc(OCC(F)(F)F)cc(OCC(F)(F)F)c1 | 2460 nM
24 | CCN(CC)c1ccc(/C=C2/SC(=O)N(C(C)C)C2=O)o1 | 3460 nM
